Structures can show the parent of a compound that is named as a salt.
Each molecule was assayed against T1, human TLR7 (Homo sapiens, UniProt Q9NYK1) (assay: TLR7 inhibition reporter assay (HEK-Blue cells, SEAP reporter, gardiquimod stimulation)). Settings: HEK-Blue cells overexpressing human TLR7, gardiquimod 7.5 μM.
T1 construct: host or cells: HEK-Blue cells
T1 sequence (Q9NYK1 27-1049): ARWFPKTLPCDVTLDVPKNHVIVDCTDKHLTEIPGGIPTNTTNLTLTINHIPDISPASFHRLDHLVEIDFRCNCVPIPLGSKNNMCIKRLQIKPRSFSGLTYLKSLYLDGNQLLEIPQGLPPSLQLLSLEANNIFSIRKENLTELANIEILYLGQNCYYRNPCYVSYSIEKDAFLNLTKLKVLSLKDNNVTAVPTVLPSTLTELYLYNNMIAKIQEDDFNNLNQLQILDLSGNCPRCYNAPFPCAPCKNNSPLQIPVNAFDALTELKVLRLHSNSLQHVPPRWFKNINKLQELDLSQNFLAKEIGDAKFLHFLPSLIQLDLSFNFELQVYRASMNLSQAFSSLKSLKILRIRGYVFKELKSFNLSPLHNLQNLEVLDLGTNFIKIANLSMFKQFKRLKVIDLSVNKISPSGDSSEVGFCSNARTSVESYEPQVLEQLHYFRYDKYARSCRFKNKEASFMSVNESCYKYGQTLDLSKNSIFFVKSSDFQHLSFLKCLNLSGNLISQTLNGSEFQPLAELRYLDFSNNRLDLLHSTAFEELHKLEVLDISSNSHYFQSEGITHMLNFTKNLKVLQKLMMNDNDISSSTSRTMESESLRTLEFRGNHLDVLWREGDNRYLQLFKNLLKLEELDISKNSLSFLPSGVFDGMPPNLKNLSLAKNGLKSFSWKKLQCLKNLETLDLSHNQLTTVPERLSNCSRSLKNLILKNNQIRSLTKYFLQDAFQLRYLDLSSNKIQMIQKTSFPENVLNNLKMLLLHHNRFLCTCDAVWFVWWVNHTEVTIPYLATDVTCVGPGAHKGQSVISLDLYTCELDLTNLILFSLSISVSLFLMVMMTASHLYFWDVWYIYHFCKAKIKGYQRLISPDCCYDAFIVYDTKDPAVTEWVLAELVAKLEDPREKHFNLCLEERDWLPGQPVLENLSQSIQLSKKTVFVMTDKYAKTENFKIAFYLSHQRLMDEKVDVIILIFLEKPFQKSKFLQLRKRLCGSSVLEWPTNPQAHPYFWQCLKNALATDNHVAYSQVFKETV
Type: cell-based
Summary of the method: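 Cells (15000/well for TLR7, 20,000 for TLR8) were treated with compounds over 0.05 nM-50 μM final. After 22 h at 37° C, 5% CO2, SEAP was measured with HEK-Blue Detection reagent; percent inhibition was taken as reduction of agonist-plus-DMSO signal relative to a known inhibitor.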

| IC50 [nM] | SMILES |
| --- | --- |
| 128 | CCN(CC)C(=O)CN(C)CC(=O)N1CCC(c2ccc3[nH]c(-c4ccc(OC)c(OC)c4)c(C(C)C)c3c2)CC1 [Example 203, 2-((2-(4-(2-(3,4-dimethoxyphenyl)-3-isopropyl-1H-indol-5-yl)piperidin-1-yl)-2-oxoethyl)(methyl)amino)-N,N-diethylacetamide, TFA] |
| 1470 | CCc1c(-c2ccc(OC)c(OC)c2)[nH]c2ccc(C3CCN(C4CCN(Cc5cnc(C)[nH]5)CC4)CC3)cc12 [Example 153, 2-(3,4-dimethoxyphenyl)-3-ethyl-5-(1′-((2-methyl-1H-imidazol-5-yl)methyl)-[1,4′-bipiperidin]-4-yl)-1H-indole] |
| 579 | CCc1c(-c2ccc(OC)c(OC)c2)[nH]c2ccc(C3CCN(C4CCN(Cc5sccc5C)CC4)CC3)cc12 [Example 139, 2-(3,4-dimethoxyphenyl)-3-ethyl-5-(1′-((3-methylthiophen-2-yl)methyl)-[1,4′-bipiperidin]-4-yl)-1H-indole] |
| 4170 | CCc1c(-c2ccc(OC)c(OC)c2)[nH]c2ccc(C3CCN(C4CCN(Cc5csnn5)CC4)CC3)cc12 [Example 130, 4-((4-(2-(3,4-dimethoxyphenyl)-3-ethyl-1H-indol-5-yl)-[1,4′-bipiperidin]-1′-yl)methyl)-1,2,3-thiadiazole] |
| 43 | CCc1c(-c2ccc(OC)c(OC)c2)[nH]c2ccc(C3CCN(C(=O)CN4CC[C@@H](O)C4)CC3)cc12 [Example 173, (R)-1-(4-(2-(3,4-dimethoxyphenyl)-3-ethyl-1H-indol-5-yl)piperidin-1-yl)-2-(3-hydroxypyrrolidin-1-yl)ethan-1-one] |
| 1690 | CCc1c(-c2ccc(OC)c(OC)c2)[nH]c2ccc(C3CCN(C(=O)C(C)(C)OC(C)=O)CC3)cc12 [Example 175, 1-(4-(2-(3,4-dimethoxyphenyl)-3-ethyl-1H-indol-5-yl)piperidin-1-yl)-2-methyl-1-oxopropan-2-yl acetate] |
| 160 | CCN(CC)C(=O)CCN(C)CC(=O)N1CCC(c2ccc3[nH]c(-c4ccc(OC)c(OC)c4)c(C(C)C)c3c2)CC1 [Example 204, 3-((2-(4-(2-(3,4-dimethoxyphenyl)-3-isopropyl-1H-indol-5-yl)piperidin-1-yl)-2-oxoethyl)(methyl)amino)-N,N-diethylpropanamide] |
| 121 | CCc1c(-c2ccc(OC)c(OC)c2)[nH]c2ccc(C3CCN(C(=O)CNc4nccs4)CC3)cc12 [Example 177, 1-(4-(2-(3,4-dimethoxyphenyl)-3-ethyl-1H-indol-5-yl)piperidin-1-yl)-2-(thiazol-2-ylamino)ethanone] |
| 1290 | CNCCN1CCC(c2ccc3[nH]c(-c4ccc(OC)c(OC)c4)c(CC(C)C)c3c2)CC1 [Example 116, trifluoroacetic acid] |
| 1210 | CCc1c(-c2ccc(OC)c(OC)c2)[nH]c2ccc(C3CCN(C(=O)CNCC#N)CC3)cc12 [Example 161, 2-((2-(4-(2-(3,4-dimethoxyphenyl)-3-ethyl-1H-indol-5-yl)piperidin-1-yl)-2-oxoethyl)amino)acetonitrile] |
| 57 | CCc1c(-c2ccc(OC)c(OC)c2)[nH]c2ccc(C3CCNCC3)cc12 [Example 122, 2-(3,4-dimethoxyphenyl)-3-ethyl-5-(piperidin-4-yl)-1H-indole] |
| 13 | COc1ccc(-c2[nH]c3ccc(C4CCN(C(=O)CNCC(C)O)CC4)cc3c2C(C)C)cc1OC (stereo not shown) [Example 210, 1-(4-(2-(3,4-dimethoxyphenyl)-3-isopropyl-1H-indol-5-yl)piperidin-1-yl)-2-((2-hydroxypropyl)amino)ethan-1-one] |
| 182 | CCc1c(-c2ccc(OC)c(OC)c2)[nH]c2ccc(C3CCN(C4CCN(Cc5c[nH]cn5)CC4)CC3)cc12 [Example 125, 5-(1′-((1H-imidazol-4-yl)methyl)-[1,4′-bipiperidin]-4-yl)-2-(3,4-dimethoxyphenyl)-3-ethyl-1H-indole] |
| 1190 | CCc1c(-c2ccc(OC)c(OC)c2)[nH]c2c(F)cc(C3CCN(CCNC)CC3)cc12 [Example 191, 2-(4-(2-(3,4-dimethoxyphenyl)-3-ethyl-7-fluoro-1H-indol-5-yl)piperidin-1-yl)-N-methylethan-1-amine] |
| 44 | COc1ccc(-c2[nH]c3ccc(C4CCN(C(=O)CNC56CC7CC(CC(O)(C7)C5)C6)CC4)cc3c2C(C)C)cc1OC [Example 218, 1-(4-(2-(3,4-dimethoxyphenyl)-3-isopropyl-1H-indol-5-yl)piperidin-1-yl)-2-(((1r,3s,5R,7S)-3-hydroxyadamantan-1-yl)amino)ethan-1-one] |
| 13 | COc1ccc(-c2[nH]c3ccc(C4CCN(C(=O)CNCCO)CC4)cc3c2C(C)C)cc1OC [Example 212, 1-(4-(2-(3,4-dimethoxyphenyl)-3-isopropyl-1H-indol-5-yl)piperidin-1-yl)-2-((2-hydroxyethyl)amino)ethan-1-one] |

Further lines, the molecule ahead of its results:

| SMILES | IC50 [nM] |
| --- | --- |
| COc1ccc(-c2[nH]c3ccc(C4CCN(C5CCN(C(C)C)CC5)CC4)cc3c2C)cc1OC [Example 10, 2-(3,4-dimethoxyphenyl)-5-(1′-isopropyl-[1,4′-bipiperidin]-4-yl)-3-methyl-1H-indole] | 606 |
| COc1ccc(-c2[nH]c3cc(C)c(C4CCN(C5CCN(C(C)C)CC5)CC4)cc3c2C)cc1OC [Example 115, 2-(3,4-dimethoxyphenyl)-5-(1′-isopropyl-[1,4′-bipiperidin]-4-yl)-3,6-dimethyl-1H-indole-di-trifluoroacetic acid] | 132 |
| COc1ccc(-c2[nH]c3ccc(C4CCN(C5CCNCC5)CC4)cc3c2C(C)C)cc1OC [Example 197, 5-([1,4′-bipiperidin]-4-yl)-2-(3,4-dimethoxyphenyl)-3-isopropyl-1H-indole dihydrochloride] | 113 |
| COc1ccc(-c2[nH]c3ccc(C4CCN(C5CCN(Cc6ccccc6)CC5)CC4)cc3c2C)cc1OC [Example 9, 5-(1′-benzyl-[1,4′-bipiperidin]-4-yl)-2-(3,4-dimethoxyphenyl)-3-methyl-1H-indole] | 1550 |
| COc1ccc(-c2[nH]c3cc(C)c(C4CCNCC4)cc3c2C(C)C)cc1OC [Example 205, 2-(3,4-dimethoxyphenyl)-3-isopropyl-6-methyl-5-(piperidin-4-yl)-1H-indole] | 2370 |
| COc1ccc(-c2[nH]c3ccc(C4CCN(C(=O)CN5CCC(N6CCCCC6)CC5)CC4)cc3c2C(C)C)cc1OC [Example 211, 2-([1,4′-bipiperidin]-1′-yl)-1-(4-(2-(3,4-dimethoxyphenyl)-3-isopropyl-1H-indol-5-yl)piperidin-1-yl)ethan-1-one] | 14 |
| COc1ccc(-c2[nH]c3ccc(C4CCN(C5CCN(C6CCCC6)CC5)CC4)cc3c2C(C)C)cc1OC [Example 202, 5-(1′-cyclopentyl-[1,4′-bipiperidin]-4-yl)-2-(3,4-dimethoxyphenyl)-3-isopropyl-1H-indole] | 155 |
| CCOC(=O)c1c(C)[nH]c(CN2CCC(N3CCC(c4ccc5[nH]c(-c6ccc(OC)c(OC)c6)c(CC)c5c4)CC3)CC2)c1C [Example 127, ethyl 5-((4-(2-(3,4-dimethoxyphenyl)-3-ethyl-1H-indol-5-yl)-[1,4′-bipiperidin]-1′-yl)methyl)-2,4-dimethyl-1H-pyrrole-3-carboxylate] | 1620 |
| CCc1c(-c2ccc(OC)c(OC)c2)[nH]c2c(F)cc(C3CCNCC3)cc12 [Example 189, 2-(3,4-dimethoxyphenyl)-3-ethyl-7-fluoro-5-(piperidin-4-yl)-1H-indole] | 430 |
| COc1ccc(-c2[nH]c3ccc(C4CCN(C5CCN(CC6CC6)CC5)CC4)cc3c2C(C)C)cc1OC [Example 198, 5-(1′-(cyclopropylmethyl)-[1,4′-bipiperidin]-4-yl)-2-(3,4-dimethoxyphenyl)-3-isopropyl-1H-indole di trifluoroacetic acid] | 379 |
| CCCc1c(-c2ccc(OC)c(OC)c2)[nH]c2ccc(C3CCN(C4CCN(CC(C)C)CC4)CC3)cc12 [Example 121, 2-(3,4-dimethoxyphenyl)-5-(1′-isobutyl-[1,4′-bipiperidin]-4-yl)-3-propyl-1H-indole-di-trifluoroacetic acid] | 661 |
| COc1ccc(-c2[nH]c3ccc(C4CCN(C5CCN(C)CC5)CC4)cc3c2C(C)C)cc1OC [Example 200, 2-(3,4-dimethoxyphenyl)-3-isopropyl-5-(1′-methyl-[1,4′-bipiperidin]-4-yl)-1H-indole] | 101 |

— patent US11180474B2 (BRISTOL-MYERS SQUIBB COMPANY, priority 2016, dated 2021)
